This passage reports EC50 results from patent US9138434B2, “Octahydrothienoquinoline derivative, pharmaceutical composition comprising derivative, and use of these” (KISSEI PHARMACEUTICAL CO., LTD., priority 2011, dated 2015).

The target of the assay is T1, human dopamine D2 receptor (Homo sapiens, UniProt P14416).
T1 construct: accorded to it of human dopamine D2 receptor (NM1-000795) registered on NCBI completely; expressed in transfected cells; membrane homogenates
Nature of the assay: Stimulating activities on human dopamine D2 receptor, [35S]GTPγS binding to hD2R#7 cell membrane homogenates. Format: biochemical. Conditions: [35S]GTPγS binding, membrane homogenates of HEK293 cells stably expressing human D2 receptor; mean, n=2; read-out: EC50. The procedure: Identification Test of Stimulating Activities on Human Dopamine D2 Receptor
4) Preparation of Membrane Homogenates from hD2R#7 Cells
(2) Preparation of Membrane Homogenates from hD2R#7 Cells
The cells, which were grown to confluence in 150 mm dishes (IWAKI), were harvested with isotonic buffer (50 mM Tris (Sigma), 2 mM ethylenediamine-tetraacetic acid (Invitrogen), and 125 mM sodium chloride (Wako Pure Chemicals), pH 7.4) and centrifuged at 1880×g and 4° C. for 10 minutes, and the cell pellets were then suspended in isotonic buffer. After being subjected to one cycle of freezing and thawing, the cells were centrifuged at 1880×g and 4° C. for 10 minutes, and the cell pellets were suspended in isotonic buffer. The cells were centrifuged at 1880×g and 4° C. for 10 minutes, and the cell pellets were suspended in isotonic buffer and homogenate buffer (10 mM sodium bicarbonate (Nacalai) and 5 mM ethylenediamine-tetraacetic acid, pH 7.5). The volume ratio of isotonic-to-homogenate buffer was 2. The cells were sonicated and centrifuged at 1880×g and 4° C. for 10 minutes, and the supernatants were ultracentrifuged at 80000×g and 4° C. for 30 minutes. The final cell pellets were suspended in homogenate buffer containing protease inhibitor cocktail (Nacalai) and stored at −80° C. until use. The protein concentration was determined using BCA Protein Assay Kit (Pierce) in accordance with the manufacturer's instructions.
5) Determination of Stimulating Activities of Human Dopamine D2 Receptor
The stimulating activities of human dopamine D2 receptor was determined by measuring the binding potential of [^35S]-guanosine 5′-[gamma-thio]triphosphate ([^35S]GTPγS, PerkinElmer) according to the method described by Newman-Tancredi A. et al. (Naunyn-Schmiedeberg's Arch Pharmacol, 1999, vol. 359, pp. 447-453) with a minor modification. Test compounds and dopamine hydrochloride (Fluka) as positive control were dissolved in dimethyl sulfoxide (CARLBIOCHEM), resulting in 30 mM. The both compounds were diluted with assay buffer (50 mM Tris, 100 mM sodium chloride, 5 mM magnesium chloride (Nacalai), 1 mM ethylenediamine-tetraacetic acid, 1 mM dithiothreitol (Wako Pure Chemicals), 10 μM guanosine diphosphate (Wako Pure Chemicals) and 0.5% bovine serum albumin (Sigma), pH 7.4) to a final concentration of 100 pM (only test compounds), 1 nM, 10 nM, 100 nM, 1 μM, 10 μM and 100 μM (only dopamine hydrochloride). The above membrane homogenates and [^35S]GTPγS were diluted with assay buffer to a final concentration of 0.06 mg/mL and 0.6 nM, respectively. The serial diluted compounds (50 μL), the diluted membrane homogenates (50 μL) and the diluted [^35S]GTPγS (50 μL) were mixed on multi-screen 96-well plate (Millipore) and shaken lightly at room temperature for 60 minutes. The reaction was terminated by vacuum filtration with three times washes of ice-cold wash buffer (50 mM Tris, 100 mM sodium chloride, 5 mM magnesium chloride, and 1 mM ethylenediamine-tetraacetic acid, pH 7.4). After drying the bottoms of the plate at 60° C., MicroScinti-40 (PerkinElmer) (30 μL) was added in the plate. The tops of the plate were sealed by TopSeal-A (PerkinElmer), and the radioactivity was determined in a TopCount NXT (registered mark) (PerkinElmer) after shaking lightly for 5-10 minutes. The data was analyzed by nonlinear regression and sigmoidal dose-response curve fitting using GraphPad PRISM 4.0 (GraphPad Software), and values of EC50 (concentration of the compound producing half the maximal effect of the compound) were calculated. The data was presented as mean value (n=2).

T1 sequence (P14416 whole entry): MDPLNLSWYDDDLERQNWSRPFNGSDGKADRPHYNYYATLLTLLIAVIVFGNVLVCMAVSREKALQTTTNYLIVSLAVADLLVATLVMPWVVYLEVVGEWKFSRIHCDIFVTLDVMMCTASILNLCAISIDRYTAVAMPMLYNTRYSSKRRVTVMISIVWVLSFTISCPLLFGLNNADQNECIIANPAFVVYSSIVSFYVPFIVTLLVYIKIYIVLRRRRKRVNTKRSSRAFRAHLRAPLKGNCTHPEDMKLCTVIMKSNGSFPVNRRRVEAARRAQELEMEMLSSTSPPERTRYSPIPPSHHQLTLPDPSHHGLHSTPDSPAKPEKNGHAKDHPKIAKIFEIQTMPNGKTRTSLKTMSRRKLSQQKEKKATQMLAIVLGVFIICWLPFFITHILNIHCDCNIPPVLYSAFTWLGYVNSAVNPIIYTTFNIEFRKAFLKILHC

As for `CCCN(CCC)CCc1cccc2c1CC(=O)N2` [Ropinirole, ropinirole, reference compound], the EC50 came to 892 nM.

With `CCCCN(C(=O)NCCN(C)C)C(=O)[C@@H]1C[C@@H]2Cc3c(sc(N)c3C#N)C[C@H]2N(C)C1` (relative stereo) [1-24, 1-{[(4aR*,6R*,8aR*)-2-amino-3-cyano-8-methyl-4H,4aH,5H,6H,7H,8H,8aH,9H-thieno[3,2-g]quinolin-6-yl]carbonyl}-1-butyl-3-[2-(dimethylamino)ethyl]urea], the 50% effective concentration (EC50) turned out to be 17 nM.

Regarding `CCN(C(=O)NCCN(C)C)C(=O)[C@@H]1C[C@@H]2Cc3c(sc(N)c3C#N)C[C@H]2N(C)C1` [1-108, 1-{[(4aR,6R,8aR)-2-amino-3-cyano-8-methyl-4H,4aH,5H,6H,7H,8H,8aH,9H-thieno[3,2-g]quinolin-6-yl]carbonyl}-3-[2-(dimethylamino)ethyl]-1-ethylurea], the 50% effective concentration (EC50) was found to be 6 nM.

Regarding `CCCN(C(=O)NCCN(C)C)C(=O)[C@@H]1C[C@@H]2Cc3c(sc(N)c3C#N)C[C@H]2N(C)C1` [1-1, 1-{[(4aR,6R,8aR)-2-amino-3-cyano-8-methyl-4H,4aH,5H, 6H,7H,8H,8aH,9H-thieno[3,2-g]quinolin-6-yl]carbonyl}-3-[2-(dimethylamino)ethyl]-1-propylurea], the 50% effective concentration (EC50) stood at 6 nM.

For the molecule `CCN(C(=O)NCC(C)(C)CN(C)C)C(=O)[C@@H]1C[C@@H]2Cc3c(sc(N)c3C#N)C[C@H]2N(C)C1` [1-4, 1-{[(4aR,6R,8aR)-2-amino-3-cyano-8-methyl-4H,4aH,5H,6H,7H,8H,8aH,9H-thieno[3,2-g]quinolin-6-yl]carbonyl}-3-[3-(dimethylamino)-2,2-dimethylpropyl]-1-ethlylurea], the half-maximal effective concentration (EC50) came to 3 nM.

On to `CCCCN(C(=O)NCCN(CC)CC)C(=O)[C@@H]1C[C@@H]2Cc3c(sc(N)c3C#N)C[C@H]2N(C)C1` [1-3, 1-{[(4aR,6R,8aR)-2-amino-3-cyano-8-methyl-4H,4aH,5H,6H,7H,8H,8aH,9H-thieno[3,2-g]quinolin-6-yl]carbonyl}-1-butyl-3-[2-(diethylamino)ethyl]urea], for which the EC50 was 7 nM.

As for `CC(C)CCN(C(=O)NCCN(C)C)C(=O)[C@@H]1C[C@@H]2Cc3c(sc(N)c3C#N)C[C@H]2N(C)C1` (relative stereo) [1-43, 1-{[(4aR*,6R*,8aR*)-2-amino-3-cyano-8-methyl-4H,4aH,5H,6H,7H,8H,8aH,9H-thieno[3,2-g]quinolin-6-yl]carbonyl}-3-[2-(dimethylamino)ethyl]-1-(3-methylbutyl)urea], the EC50 amounted to 32 nM.

On to `CCCCN(C(=O)NCCN1CCCCC1)C(=O)[C@@H]1C[C@@H]2Cc3c(sc(N)c3C#N)C[C@H]2N(C)C1` (relative stereo) [1-46, 1-{[(4aR*,6R*,8aR*)-2-amino-3-cyano-8-methyl-4H,4aH,5H,6H,7H,8H,8aH,9H-thieno[3,2-g]quinolin-6-yl]carbonyl}-1-butyl-3-[2-(piperidin-1-yl)ethyl]urea], for which the EC50 turned out to be 10 nM.

With `CCN(C(=O)N[C@@H](C)CN(C)C)C(=O)[C@@H]1C[C@@H]2Cc3c(sc(N)c3C#N)C[C@H]2N(C)C1` [1-57, 1-{[(4aR,6R,8aR)-2-amino-3-cyano-8-methyl-4H,4aH,5H,6H, 7H,8H,8aH,9H-thieno[3,2-g]quinolin-6-yl]carbonyl}-3-[(2S)-1-(dimethylamino)propan-2-yl]-1-ethylurea], the EC50 worked out at 5 nM.
